Source: patent publication US6713057B1, “Compositions and methods for modulating serum cholesterol” (The Johns Hopkins University, priority 1999, dated 2004)

Key:
[1] = system: SREBP-1; assay: SREBP-1 proteolysis (maturation) assay, Western immunoblot of nuclear fractions, HH-25 hepatocytes; type: cell-based, human; conditions: for increase in mass of the mature form of SREBP-1: sterol supplemented media
Protocol: FIGS. 2A-2C illustrate effects of TNF-α sphingomyelinase and C2-ceramide on the kinetics of SREBP-1 maturation—FIGS. 2A-2C is explained in more detail as follows: Cells were maintained in media supplemented with 1 μg/ml 25-hydroxy cholesterol and 15 μg/ml cholesterol for 24 hours before the experiment. The cells were treated for the indicated time as described in materials and methods. The cells were then harvested in PBS, pelleted and frozen. Lysis and nuclear fractionation were performed as described. Nuclear fractions (50 μg of protein) were electrophoresed on a 7.5% polyacrylamide gel and transferred to a PVDF membrane. Western blotting was performed as described. Band intensity was quantified via densitometry. Error bars represent ±one standard deviation from the mean. 2A) The kinetics of SREBP maturation as measured by the increase in mature SREBP-1 are plotted. Fold increase was calculated by comparing each time point to the corresponding control value (TNF-α is represented by stippled bars, bacterial sphingomyelinase is represented by light gray bars and C2-ceramide by the dark bars.) 2B) Cells were treated with TNF-α (10 ng/ml) and prepared as described above. The bands corresponding to the precursor and mature forms of SREBP-1 were quantified and their ratio plotted. 2C) Representative Western blots from which numerical data was derived. Incubation time is indicated above and applies to all conditions. The membranes were exposed to film for 15 seconds. P and M denote the precursor and mature forms of SREBP-1 respectively.
FIGS. 3A-3C show effects of TNF-α, sphingomyelinase and C2-ceramide concentration on SREBP-1 maturation—The FIGS. 3A-3C are explained in more detail as follows. […] Nuclear pellets were prepared and electrophoresed (50 μg of protein). The bands corresponding to the precursor and mature forms of SREBP-1 were quantified. The precursor to mature ratios were normalized to a single control to facilitate comparison. The control ratio was arbitrarily assigned a value of 1. A Unit of sphingomyelinase activity hydrolyzes 1.0 μmol of sphingomyelin per minute at 37° C. FIG. 3A (ng/ml TNF-α); FIG. 3B (mUnits of sphingomyelinase); FIG. 3C (micromolar C2-ceramide).
HH-25 cells were grown in alpha-minimal essential media supplemented with 100 units/ml penicillin, 100 µg/ml streptomycin, […], 0.1 μM selenium, 5.5 μg/ml transferrin, 0.5 μg/ml linoleic acid and 10% fetal bovine serum (media A). The cells were incubated in serum free F10 media for 30 to 60 minutes prior to initiating treatment with TNF-α, C2-ceramide or sphingomyelinase.
Following treatment, the cells were washed with 5 ml of PBS and pelleted at 1500×g for 10 minutes at 4° C. The pellet was stored at −70° C. and lysed in 0.5 ml buffer A (10 mM HEPES pH 7.4, 5 mM EDTA, 0.25 mM EGTA, 50 mM NaF, 7 mM β-mercaptoethanol, 0.35M sucrose, 0.1% NP-40 and protease inhibitors 1 mM PMSF, 2 μg/ml aprotinin, 10 μg/ml leupeptin and 5 μg/ml pepstatin). The lysate was centrifuged at 12,000×g for 15 minutes at 4° C. to prepare a nuclear fraction. The protein concentration of these samples was determined by the method of Lowry et al. al. (19).
50 μg of nuclear protein was separated by gel electrophoresis on a 7.5% polyacrylamide gel. Gels were calibrated by high range molecular weight markers (Bio-Rad product #161-0303, New York, N.Y.) which were transferred to a polyvinyl difluoride (PVDF) membrane and visualized with coomassie staining. Rabbit polyclonal antibodies against SREBP-1 were used at 0.5 μg/ml according to the instructions of the manufacturer. The antibody was visualized with horseradish peroxidase conjugated anti-rabbit IgG made in donkey (Amersham) using the Enhanced Chemiluminescence (ECL) Western Blotting Detection System Kit (Amersham). PVDF membranes were exposed to Hyperfilm ECL (Amersham) for the indicated time. Immunoblots were quantified via densitometry performed on a PDI densitometer scanner (model 20J7) coupled to a SPARC IRC workstation.

[2] = system: neutral sphingomyelinase (N-SMase); assay: Neutral sphingomyelinase assay after TNF-α stimulation of HH-25 cells; type: cell-based, human; conditions: TNF-α 10 ng/ml
Protocol: FIG. 1 illustrates the effect of TNF-α on neutral sphingomyelinase activity and is explained in more detail as follows: Confluent cultures of HH-25 cells were washed once with PBS and incubated in serum free media for 30 minutes prior to the addition of TNF-α (10 ng/ml). At the indicated time, cells were harvested in PBS, pelleted and frozen. Cells were subsequently lysed as described in materials and methods. N-SMase assays were performed in duplicate as described. Error bars represent ±one standard deviation from the mean.
After stimulation with TNF-α for the indicated time intervals, the cells were washed once with 5 ml PBS and harvested. The pellet was stored frozen at −70° C. and resuspended in 0.5 ml buffer B (100 mM Tris HCl pH 7.4, 0.1% triton X-100, 1 mM EDTA and protease inhibitors). The cell suspension was sonicated 3 times (3 second bursts) using a probe sonicator and centrifuged at 500×g at 4° C. for 5 minutes. The supernatant was used as the enzyme source.
100 μg of protein was assayed for neutral sphingomyelinase activity in a buffer consisting of 5 mM Tris HCl pH 7.4, 0.1% triton X-100, 0.1 mg BSA, 5 mM MgCl2, and […] [^14C] sphingomyelin (12,000 dpm). The assay was incubated at 37° C. for 1.5 hours and terminated with the addition of 1 ml of 10% TCA. […]

[3] = system: LDL receptor mRNA; assay: LDL receptor mRNA, Northern analysis in human hepatocytes; type: cell-based; conditions: TNF-α treatment
Protocol: Briefly, human hepatocytes(1×10^4) were seeded in sterile 100 mm^2 in medium containing 10% dialyzed, heat inactivated fetal bovine serum without antibiotics. Twenty four hours later medium was replaced with 9 ml of fresh serum free medium. After incubation for 30 min at 37° C. 5-40 μg of the plasmid DNA in 1 ml of a CaCl2 solution (mixed with equal volume of 0.25-2.5 M CaCl2 solution in HEPES buffer and HEPES buffer pH 6.95). Following gentle mixing incubation of cells was continued for 5-24 hr at 37° C. The transfection reaction was terminated by removing the medium and washing the cells with serum free medium. Next, fresh serum supplemented medium was added and incubation was continued for an additional 24 hr and cells were harvested in appropriate buffer centrifuged and stored frozen until further analysis. Cell pellets were homogenized and suitable aliquots subjected to Western immunoblot analysis as described below and in Examples 1-7 above. Total RNA was isolated from another batch of cells transfected as above and subjected to Northern analysis employing a ^32P labeled LDL receptor consensus sequence. The autoradiographs were developed and photographed.

Molecule | Emax ([1]; Homo sapiens, Hepatocyte, 1 μM of C2-ceramide, read-out: percent of maximal effect on SREBP-1 maturation) | persistence of the increase in mature SREBP-1 ([1]; after 60 minutes) | return of N-SMase activity to control levels [2] | maximal increase in neutral sphingomyelinase activity ([2]; 15 minutes after addition) | concentration giving maximal effect on SREBP-1 maturation [1] | dependence of extent of SREBP-1 maturation on concentration [1] | maximal decrease in the precursor to mature SREBP-1 ratio ([1]; 45 minutes after TNF-α (10 ng/ml) was added) | increase in mass of the mature form of SREBP-1 ([1]; after 5 minutes of incubation) | increase in mass of the mature form of SREBP-1 ([1]; after 15 minutes of treatment) | LDL receptor mRNA level [3]
CCCCCCCCCCCCC/C=C/[C@@H](O)[C@H](CO)NC(C)=O [C2-ceramide, N-acetylsphingosine, reference compound] | 81% | persistent elevation | – | – | – | – | – | – | – | –
TNF-α | – | – | ≤ 1 h | 2.5 fold | 10 ng/mL | did not vary appreciably with concentration | 1.5 fold | 2 fold | 3 fold | induces LDL receptor mRNA level
